{"source": "paper PMC8748916", "about": "“Microbial enzymes induce colitis by reactivating triclosan in the mouse gastrointestinal tract” (Nature Communications, 2022)", "key": {"[1]": {"assay": "LC-MS/MS profiling of TCS metabolism in mice (TCS via diet for 4 weeks)", "conditions": "for concentration of TCS, TCS-G, TCS-Sulfate: individual mice"}, "[2]": {"assay": "LC-MS/MS of TCS and its metabolites in human stool and urine after use of TCS-containing personal care products;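 on Profile in stool (%): molar share of summed TCS plus TCS-G plus TCS-sulfate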;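 on Profile in urine (%): molar share of summed TCS plus TCS-G plus TCS-sulfate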;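 on average molar concentration ratio: molar share of summed TCS plus TCS-G plus TCS-sulfate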", "assay_type": "in vivo", "conditions": "for TCS metabolites in human stool / TCS metabolites in human urine: Treatment TCS, individual subjects; for average molar concentration ratio: TCS-exposed subjects", "text": "To broaden our understanding of TCS metabolic profiles in the gut, we next analyzed TCS metabolism in human subjects. We utilized urine and stool samples from a previous study in which the recruited human subjects were first subjected to a washout period (no usage of TCS-containing products), then were randomly assigned to two groups that used personal care products like toothpaste with or without TCS for up to four months (see the scheme of the experiment in Fig. 1c)[15]. Previous data had established that humans are primarily exposed to TCS via toothpaste that provides a direct oral route to the gastrointestinal tract[16],[17]."}, "[3]": {"tested_on": "enzymes extracted from human fecal samples", "assay": "In fimo assay (TCS-G turnover rate by human fecal extracts)", "assay_type": "biochemical", "conditions": "Fig. 3c, replicates 1-3", "description": "Fecal extracts were prepared and proteomic analysis was performed exactly as previously described. In total, 10 g of frozen human fecal sample was thawed and added to 25 mL extraction buffer (25 mM HEPES, 25 mM NaCl pH 6.5 with Roche Complete protease inhibitor tablet) and 0.5 g autoclaved garnet beads. The mixture was vortexed until homogenous and centrifuged at low speed (300 × g for 5 min at 4 °C). The supernatant was decanted. In all, 25 mL buffer was added to the pellet and the vortex and centrifugation steps repeated. The supernatants from these steps were then combined and centrifuged at low speed for two more cycles. The resultant supernatant was sonicated twice using 1 s pulses for 1.5 min and the lysate was centrifuged at 17,000 × g for 20 min in a Beckman Coulter J2-HC centrifuge. The decanted lysate was then washed with several exchanges of extraction buffer to remove metabolites and small molecules. Total protein concentration was quantitated using a Bradford assay. The fecal lysate was diluted to 1 mg/mL concentration and snap-frozen in small aliquots.\nReaction mixtures contained 5 µL fecal extract (0.1 mg/mL final), 30 µL TCS-G (200 µM final), and 15 µL assay buffer (25 mM HEPES, 25 mM NaCl, pH 6.5). Reactions were quenched at five time points with 50 µL 25% trichloroacetic acid. Samples were centrifuged 20 min at 16,000 × g in a tabletop centrifuge, and the supernatant was analyzed via the same HPLC method described for the catalytic efficiency assay. Reaction rates were determined by fitting progress curves using linear regression and are expressed as initial turnover rates (µM/s). Controls contained fecal extract that had been heat-killed at 95 °C for 5 min. Reported rates are the average of three biological replicates ±SEM."}, "[4]": {"conditions": "treatment time 0 months (after washout)"}}, "note": "Values joined by “and” are separate entries in the source; they are usually repeats but may differ in a detail not shown here. Equal values may be shown once."}
{"smiles": "O=S(=O)(O)Oc1cc(Cl)ccc1Oc1ccc(Cl)cc1Cl", "note": "[TCS-sulfate, triclosan-sulfate]", "values": [{"measurement": "concentration of TCS, TCS-G, TCS-Sulfate", "setting": "[1]; Bile, 80 ppm TCS via diet 4 weeks", "result": "93.62 pmol/mg and 49.05 pmol/mg and 43.31 pmol/mg and 67.29 pmol/mg"}, {"measurement": "concentration of TCS, TCS-G, TCS-Sulfate", "setting": "[1]; Cecum (digesta), 80 ppm TCS via diet 4 weeks", "result": "0.12 pmol/mg and 0.13 pmol/mg and 0.09 pmol/mg and 0.35 pmol/mg and 0.29 pmol/mg and 0.53 pmol/mg and 0.56 pmol/mg and 0.38 pmol/mg and 0.61 pmol/mg and 0.54 pmol/mg"}, {"measurement": "concentration of TCS, TCS-G, TCS-Sulfate", "setting": "[1]; Cecum digesta, 1 ppm TCS in diet 4 weeks", "result": 0, "unit": "pmol/mg"}, {"measurement": "concentration of TCS, TCS-G, TCS-Sulfate", "setting": "[1]; Cecum digesta, 10 ppm TCS in diet 4 weeks", "result": "0.02 pmol/mg and 0 pmol/mg and 0.01 pmol/mg"}, {"measurement": "concentration of TCS, TCS-G, TCS-Sulfate", "setting": "[1]; Cecum digesta, 80 ppm TCS in diet 4 weeks", "result": "0.03 pmol/mg and 0.05 pmol/mg and 0.08 pmol/mg and 0.06 pmol/mg and 0.13 pmol/mg"}, {"measurement": "concentration of TCS, TCS-G, TCS-Sulfate", "setting": "[1]; Colon (digesta), 80 ppm TCS via diet 4 weeks", "result": "1.16 pmol/mg and 1.00 pmol/mg and 1.32 pmol/mg and 1.31 pmol/mg and 2.15 pmol/mg and 0.67 pmol/mg and 0.75 pmol/mg and 2.57 pmol/mg and 1.48 pmol/mg and 2.39 pmol/mg"}, {"measurement": "concentration of TCS, TCS-G, TCS-Sulfate", "setting": "[1]; Colon digesta, 1 ppm TCS in diet 4 weeks", "result": 0, "unit": "pmol/mg"}, {"measurement": "concentration of TCS, TCS-G, TCS-Sulfate", "setting": "[1]; Colon digesta, 10 ppm TCS in diet 4 weeks", "result": "0.2 pmol/mg and 0 pmol/mg and 0.03 pmol/mg and 0.01 pmol/mg and 0.05 pmol/mg and 0.02 pmol/mg"}, {"measurement": "concentration of TCS, TCS-G, TCS-Sulfate", "setting": "[1]; Colon digesta, 80 ppm TCS in diet 4 weeks", "result": "0.3 pmol/mg and 0.21 pmol/mg and 0.1 pmol/mg and 0.13 pmol/mg and 0.22 pmol/mg and 0.09 pmol/mg and 0.81 pmol/mg and 0.37 pmol/mg"}, {"measurement": "concentration of TCS, TCS-G, TCS-Sulfate", "setting": "[1]; Feces, 1 ppm TCS in diet 4 weeks", "result": 0.05, "unit": "pmol/mg"}, {"measurement": "concentration of TCS, TCS-G, TCS-Sulfate", "setting": "[1]; Feces, 10 ppm TCS in diet 4 weeks", "result": "0.1 pmol/mg and 0.16 pmol/mg"}, {"measurement": "concentration of TCS, TCS-G, TCS-Sulfate", "setting": "[1]; Feces, 80 ppm TCS in diet 4 weeks", "result": "3.27 pmol/mg and 1.08 pmol/mg"}, {"measurement": "Level in Cecum", "setting": "[1]; Fig. S3b, Cecum, individual mice No. 1-10 per row", "result": "0.53 and 0.56 and 0.38 and 0.61 and 0.54 and 0.12 and 0.13 and 0.09 and 0.35 and 0.29"}, {"measurement": "Level in Colon", "setting": "[1]; Fig. S3b, Colon, individual mice No. 1-10 per row", "result": "0.78 and 1.13 and 3.01 and 1.95 and 2.87 and 1.28 and 1 and 1.68 and 1.44 and 2.3"}, {"measurement": "Level in SI 1st section", "setting": "[1]; Fig. S3b, SI 1st section, individual mice No. 1-10 per row", "result": "7.35 and 7.33 and 7.48 and 7.82 and 9.31 and 9.27 and 9.71 and 4.38 and 7.68 and 8.04"}, {"measurement": "Level in SI 2nd section", "setting": "[1]; Fig. S3b, SI 2nd section, individual mice No. 1-10 per row", "result": "6.24 and 6.6 and 5.34 and 6.55 and 6.34 and 6.37 and 6.86 and 2.98 and 4.48 and 5.78"}, {"measurement": "Level in SI 3rd section", "setting": "[1]; Fig. S3b, SI 3rd section, individual mice No. 1-10 per row", "result": "5.62 and 5.7 and 3.67 and 5.46 and 7.7 and 5.86 and 4.93 and 2.15 and 4.34 and 5.06"}, {"measurement": "Level in SI 4th section", "setting": "[1]; Fig. S3b, SI 4th section, individual mice No. 1-10 per row", "result": "7.25 and 6.61 and 6.48 and 10.63 and 8.75 and 6.52 and 6.94 and 2.9 and 7.06"}, {"measurement": "concentration of TCS, TCS-G, TCS-Sulfate", "setting": "[1]; Heart, 80 ppm TCS via diet 4 weeks", "result": "10.90 pmol/mg and 8.11 pmol/mg and 9.20 pmol/mg and 10.24 pmol/mg"}, {"measurement": "concentration of TCS, TCS-G, TCS-Sulfate", "setting": "[1]; Liver, 80 ppm TCS via diet 4 weeks", "result": "37.26 pmol/mg and 31.81 pmol/mg and 21.91 pmol/mg and 24.89 pmol/mg and 30.95 pmol/mg and 12.68 pmol/mg and 35.36 pmol/mg and 32.58 pmol/mg and 32.38 pmol/mg and 20.28 pmol/mg"}, {"measurement": "concentration of TCS, TCS-G, TCS-Sulfate", "setting": "[1]; SI 1st section (digesta), 80 ppm TCS via diet 4 weeks", "result": "7.33 pmol/mg and 7.48 pmol/mg and 7.82 pmol/mg and 9.31 pmol/mg"}, {"measurement": "concentration of TCS, TCS-G, TCS-Sulfate", "setting": "[1]; SI 2nd section (digesta), 80 ppm TCS via diet 4 weeks", "result": "6.37 pmol/mg and 6.86 pmol/mg and 2.98 pmol/mg and 4.48 pmol/mg and 5.78 pmol/mg and 6.24 pmol/mg and 6.60 pmol/mg and 5.34 pmol/mg and 6.55 pmol/mg and 6.34 pmol/mg"}, {"measurement": "concentration of TCS, TCS-G, TCS-Sulfate", "setting": "[1]; SI 3rd section (digesta), 80 ppm TCS via diet 4 weeks", "result": "5.86 pmol/mg and 4.93 pmol/mg and 2.15 pmol/mg and 4.34 pmol/mg and 5.06 pmol/mg and 5.62 pmol/mg and 5.70 pmol/mg and 3.67 pmol/mg and 5.46 pmol/mg and 7.70 pmol/mg"}, {"measurement": "concentration of TCS, TCS-G, TCS-Sulfate", "setting": "[1]; SI 4th section (digesta), 80 ppm TCS via diet 4 weeks", "result": "6.52 pmol/mg and 6.94 pmol/mg and 2.90 pmol/mg and 6.61 pmol/mg and 7.06 pmol/mg and 7.25 pmol/mg and 6.48 pmol/mg and 10.63 pmol/mg and 8.75 pmol/mg"}, {"measurement": "share of TCS metabolites found", "setting": "[1]; digesta of the 4th section of the mouse small intestine, 80 ppm TCS via diet 4 weeks", "result": 7.7, "unit": "%"}, {"measurement": "share of TCS metabolites found", "setting": "[1]; fecal content, 80 ppm TCS via diet 4 weeks", "result": 0.2, "unit": "%"}, {"measurement": "Profile in urine (%)", "setting": "[2]; TCS-exposed human subjects, n=7 urine samples", "result": 0.04, "unit": "%"}, {"measurement": "Profile in stool (%)", "setting": "[2]; TCS-exposed human subjects, n=23 stool samples", "result": 0.0365, "unit": "%"}, {"measurement": "TCS metabolites in human stool", "setting": "[2]; [4]", "result": "0.311 pmol/ g stool and < LOD"}, {"measurement": "TCS metabolites in human urine", "setting": "[2]; [4]", "result": "0.071 nM urine and < LOD (3×)"}, {"measurement": "TCS metabolites in human stool", "setting": "[2]; treatment time 1 month", "result": "1.344 pmol/ g stool and < LOD (3×) and 0.342 pmol/ g stool and 0.381 pmol/ g stool"}, {"measurement": "TCS metabolites in human urine", "setting": "[2]; treatment time 1 month", "result": 0.470, "unit": "nM urine"}, {"measurement": "TCS metabolites in human stool", "setting": "[2]; treatment time 2 months", "result": "< LOD (4×) and 0.999 pmol/ g stool"}, {"measurement": "TCS metabolites in human urine", "setting": "[2]; treatment time 2 months", "result": 0.522, "unit": "nM urine"}, {"measurement": "TCS metabolites in human stool", "setting": "[2]; treatment time 3 months", "result": "0.987 pmol/ g stool and < LOD (5×)"}, {"measurement": "TCS metabolites in human urine", "setting": "[2]; treatment time 3 months", "result": 0.157, "unit": "nM urine"}, {"measurement": "TCS metabolites in human stool", "setting": "[2]; treatment time 4 months", "result": "0.971 pmol/ g stool and < LOD (4×) and 0.236 pmol/ g stool"}, {"measurement": "TCS metabolites in human urine", "setting": "[2]; treatment time 4 months", "result": "0.257 nM urine and < LOD and 0.689 nM urine and 0.388 nM urine"}, {"measurement": "average molar concentration ratio", "setting": "[2]; human stool", "result": 0.0, "unit": "%"}, {"measurement": "average molar concentration ratio", "setting": "[2]; human urine", "result": 0.0, "unit": "%"}]}
{"smiles": "O=C(O)[C@H]1OC(Oc2cc(Cl)ccc2Oc2ccc(Cl)cc2Cl)[C@H](O)[C@@H](O)[C@@H]1O", "note": "(stereo partly shown) [TCSG]", "values": [{"measurement": "TCSG turnover rate", "setting": "[3]; human fecal extract sample F2", "result": "0.0489 µM/s and 0.0506 µM/s and 0.0488 µM/s"}, {"measurement": "TCSG turnover rate", "setting": "[3]; human fecal extract sample F3", "result": "0.0556 µM/s and 0.0559 µM/s and 0.0553 µM/s"}, {"measurement": "TCSG turnover rate", "setting": "[3]; human fecal extract sample F4", "result": "0.036 µM/s and 0.0272 µM/s and 0.0271 µM/s"}, {"measurement": "TCSG turnover rate", "setting": "[3]; human fecal extract sample M1", "result": "0.063 µM/s and 0.0659 µM/s and 0.0613 µM/s"}, {"measurement": "TCSG turnover rate", "setting": "[3]; human fecal extract sample M2", "result": "0.0168 µM/s and 0.0179 µM/s and 0.0157 µM/s"}, {"measurement": "TCSG turnover rate", "setting": "[3]; human fecal extract sample M3", "result": "0.0438 µM/s and 0.0439 µM/s and 0.0436 µM/s"}]}
